Laboratory results published in ChEMBL document CHEMBL3507680, “University of Dundee, Gates Library screen for HepG2 cell viability”.

Test: Human HepG2 cell viability assay in 384 well format
Type: toxicity, cell-based
Design: dose 125 nL, time 70.5 hour; concentration not given beside the values
Conditions: HepG2 cells, read-out: Inhibition

Work on `CSC(C)C(=O)N(C)CCCc1cc(-c2ccccc2)no1` (configuration not stated) yielded a cytotoxicity at 70.5 h of 27.1%.
For `CCc1noc(C(C)N2CCN(CCOCC(F)(F)F)CC2)n1` (configuration not stated), the cytotoxicity at 70.5 h was -2.37%.
For `Cc1ccc(CC(=O)N2CCCC(c3ccn[nH]3)C2)cn1` (configuration not stated), the cytotoxicity at 70.5 h was 0.114%.
In the case of `O=C(Nc1cccc(CNCc2cccnc2)c1)C1CCCC1`, the cytotoxicity at 70.5 h is reported as -4.79%.
With `CC(c1cccc(Cl)c1)N(C)Cc1nc2c(cnn2C)c(=O)[nH]1` (configuration not stated) the cytotoxicity at 70.5 h was -1.63%.
Molecule `COc1ccc(C(C)N(C)Cc2nc3c(cnn3C)c(=O)[nH]2)cc1` (configuration not stated) has a cytotoxicity at 70.5 h of -8.42%.
In the case of `CNC(=O)NC(=O)C(C)N(C)CCCc1cc(-c2ccccc2)no1` (configuration not stated), the cytotoxicity at 70.5 h is reported as -1.15%.
For `COc1cccc(N2CCN(C(=O)CN(C)c3cnccn3)CC2)c1`, the cytotoxicity at 70.5 h was -1.38%.
In the case of `O=C(O)c1cc(NS(=O)(=O)c2ccc(Br)s2)c(F)cc1F`, the cytotoxicity at 70.5 h is reported as 1.5%.
Molecule `O=C1NCCN1C1CCN(CCOc2ccccc2F)CC1` has a cytotoxicity at 70.5 h of -5.97%.
Work on `CCn1ccnc1CN1CCN(Cc2cc(C#N)ccc2F)CC1` yielded a cytotoxicity at 70.5 h of -3.57%.
Work on `Clc1ccc(CN2CCCC2Cn2cncn2)c2ncccc12` (configuration not stated) yielded a cytotoxicity at 70.5 h of -2.37%.
For `CCOC1CCN(C(=O)CN(C)c2cnccn2)CC1`, the cytotoxicity at 70.5 h was -4.29%.
Molecule `Cc1ccc(CC(=O)N2CCCC(c3nccs3)C2)cn1` (configuration not stated) has a cytotoxicity at 70.5 h of -4.34%.
Work on `CC(C)Oc1ccc(CNC(=O)NCC(C)(C)C(N)=O)cc1F` yielded a cytotoxicity at 70.5 h of -5.2%.
`CNc1nc(CNC(=O)Nc2ccc([S+](C)[O-])c(F)c2)cs1` (configuration not stated) showed a cytotoxicity at 70.5 h of -2.75%.
In the case of `CC(c1cc(F)ccc1F)N(C)Cc1nc2c(cnn2C)c(=O)[nH]1` (configuration not stated), the cytotoxicity at 70.5 h is reported as 10.4%.
Molecule `Clc1ccc2cccnc2c1CN1CCCCC1Cn1cncn1` (configuration not stated) has a cytotoxicity at 70.5 h of -4.31%.
In the case of `CC(=O)N1CCCN(C(=O)NCCNc2ccccn2)CC1`, the cytotoxicity at 70.5 h is reported as 2.71%.
For `CN(Cc1ccc(N(C)C)cc1)C(=O)c1cc2c([nH]c1=O)CCCC2=O`, the cytotoxicity at 70.5 h was -4.35%.
With `Cc1nc(CNC(=O)N(C)Cc2cnn(C)c2)cs1` the cytotoxicity at 70.5 h was 9.64%.
Molecule `CC(NC(=O)NCCCn1cncn1)c1ccc2c(c1)CC(=O)N2` (configuration not stated) has a cytotoxicity at 70.5 h of -1.37%.
Molecule `COCCCNC(=O)CN(C)C(=O)c1ccccc1O` has a cytotoxicity at 70.5 h of -3.02%.
With `CC(NC(=O)NCCCn1cncn1)c1ccncc1` (configuration not stated) the cytotoxicity at 70.5 h was 2.26%.
`CN(Cc1ccsc1)C(=O)c1cc2c([nH]c1=O)CCC2` gave a cytotoxicity at 70.5 h of -4.53%.
For `COCCCNC(=O)CN(C)C(=O)c1cc(Cl)ccc1O`, the cytotoxicity at 70.5 h was 0.174%.
For `Cn1cc(C2CCCN2C(=O)c2ccc(NC3CC3)nc2)cn1` (configuration not stated), the cytotoxicity at 70.5 h was 0.0682%.
Work on `CCc1nc(CN2CCCN(C(=O)c3cnc(C)cn3)CC2)cs1` yielded a cytotoxicity at 70.5 h of 1.16%.
For `CCc1nc(CN2CCCN(C(=O)c3ccnc(C)n3)CC2)cs1`, the cytotoxicity at 70.5 h was 3.9%.
Work on `CNC(=O)c1ccc(C(=O)N2CCCC2c2c(C)nn(C)c2C)cn1` (configuration not stated) yielded a cytotoxicity at 70.5 h of -4.27%.
In the case of `O=C(c1cnccn1)N1CCN(Cc2cscn2)CC1`, the cytotoxicity at 70.5 h is reported as 31.3%.
Work on `Cc1nn(C)c(C)c1C1CCCN1C(=O)c1ccc(C(N)=O)cn1` (configuration not stated) yielded a cytotoxicity at 70.5 h of 4.05%.
For `Cc1ncsc1C(=O)NCCNC(=O)c1cccs1`, the cytotoxicity at 70.5 h was -3.7%.
For `CC(NC(=O)NCCCn1cccn1)c1ccc2c(c1)OCCCO2` (configuration not stated), the cytotoxicity at 70.5 h was 13.2%.
Work on `Cc1cccc(OCCN2CCN(Cc3cnn(CCO)c3)CC2)c1` yielded a cytotoxicity at 70.5 h of -1.35%.
Molecule `Cc1ccc(CNC(=O)CN2CCOC(Cn3cccn3)C2)s1` (configuration not stated) has a cytotoxicity at 70.5 h of -4.52%.
Work on `Cc1ccccc1OCCN1CCN(Cc2cnn(CCO)c2)CC1` yielded a cytotoxicity at 70.5 h of 4.76%.
Molecule `Cc1csc(N2CCN(CC(=O)N3CCCC3)CC2C)n1` (configuration not stated) has a cytotoxicity at 70.5 h of 1.56%.
Molecule `Cc1ccc(N(CCC#N)C(=O)CN2CCCC2c2ccsc2)cc1` (configuration not stated) has a cytotoxicity at 70.5 h of 0.989%.
`CN(C)c1ccc(C(=O)N2CCCC2c2noc(C3CC3)n2)nn1` (configuration not stated) gave a cytotoxicity at 70.5 h of 13.8%.
`CCc1nnc2n1CCN(CC(O)c1ccc3c(c1)OCCO3)C2` (configuration not stated) showed a cytotoxicity at 70.5 h of 23.6%.
`CC(C)c1nc(C2CCCN2C(=O)c2ccc(C#N)cn2)no1` (configuration not stated) gave a cytotoxicity at 70.5 h of 1.98%.
Molecule `CCC1CCCN(Cc2nc(N)c3ccccc3n2)C1` (configuration not stated) has a cytotoxicity at 70.5 h of 4.3%.
Work on `CCCc1nc(C)c(C(=O)NCCn2nc3ccccn3c2=O)s1` yielded a cytotoxicity at 70.5 h of 19.2%.
Work on `CCc1nc(C)c(C(=O)NCCn2nc3ccccn3c2=O)s1` yielded a cytotoxicity at 70.5 h of -3.88%.
In the case of `Cc1nc(C(C)C)sc1C(=O)NCCn1nc2ccccn2c1=O`, the cytotoxicity at 70.5 h is reported as -1.52%.
`O=C(Nc1cccc(CNCc2cccs2)c1)C1CC1` gave a cytotoxicity at 70.5 h of -8.51%.
